Reference: patent publication US5643890A, “Synthetic oligonucleotides which mimic telomeric sequences for use in treatment of cancer and other diseases” (priority 1995, dated 1997)
Where two headings read alike, the source gives them in different places.

Legend:
[1] = tested on: OMA-BL1 cells; test: Growth rate / doubling time of OMA-BL1 cells cultured with oligo; format: cell-based, human; conditions: for Doubling Time (Hours of Doubling): observed for 5 days
Protocol: A cell line, OMA-BL1, of cells derived from an American Burkitt's lymphoma patient, which had the typical 8:14 chromosome translocation characteristic of Burkitt's lymphoma was tested according to the method of the invention. The OMA-BL1 cells have a homologous staining region along chromosome 18 (18 HSR). The cell line was grown in vitro consisting of RPMI 1640 medium supplemented with 20% fetal calf serum (RF20). 2 mM L-glutamine and antibiotics (streptomycin 100 μ/ml and penicillin) 2× week.
Phosphorothioate oligonucleotides corresponding to the recognition sequence for telomerase enzyme were synthesized. The sequence of oligonucleotides tested was 5'-(TTAGGG)-3' SEQ ID NO: 3. They were dissolved in RPMI1640 medium before using.
The cell lines were grown under concentration of 5×10^5 cells/ml and RPMI1640 with and without different concentrations of oligo. Concentrations of oligo used in the study were 1.25 μM and 2.5 μM. The growth rate of the cells was measured by counting the cells with a light microscope and Neuber cell counter on days 1, 3, and 5 after initiation of the culture. […]

[2] = tested on: OMA-BL1, Burkitt's Lymphoma; test: In vivo efficacy, OMA-BL1 Burkitt's lymphoma in nude mice, continuous subcutaneous infusion
Protocol: Nude mice were injected with 5×10^6 OMA-BL1 cells subcutaneously in the leg flank. The mice were observed daily for the appearance of tumors and general well-being. […] The mean fill volume of these pumps is 0.226 ml. A solution of 4 mg/ml of 6-mers and 20 μl of FITC-TAG-6 was prepared then sterile filtered through a 0.22 μm in line filter (Millipore). […]

[3] = tested on: 410.4 cells; test: Tumor invasion assay (Matrigel invasion chambers) and proliferation, mouse breast cancer cell line; format: cell-based; conditions: for % control invasion / % inhibition: Mouse cell line, 48 hours; for % inhibition: invasion; for proliferation (in words): mouse highly metastatic breast cancer cell line
Protocol: Migration of 410.4 cells through matrigel coated Nucleopore filters was measured using Matrigel invasion chambers (Collaborative Biomedical Products). These chambers contained inserts with […] pore size and were coated with a uniform film of matrigel. 4×10^4 410.4 cells in Weymouths Medium plus 0.1% bovine serum albumin were added to the invasion chambers. The wells below the invasion chambers contained 0.5 ml of Weymouths plus 10% fetal calf serum as a chemoattractant. […] The noninvasive cells were then removed from the upper surface of the membrane with a cotton swab and the cells on the lower surface were stained using a Leucostat staining kit. The membranes then were removed from the chamber using a scalpel and the cells were counted under high power (450×) in 5 random fields.

[4] = tested on: highly metastatic breast cancer cell line (Human); test: Tumor invasion assay (Matrigel invasion chambers) and proliferation, human breast cancer cell line; format: cell-based; conditions: for % control invasion / % inhibition: Human cell line, 48 hours; for proliferation (in words): human highly metastatic breast cancer cell line; for % inhibition: invasion
[5] = tested on: Telomerase enzyme; test: Telomerase activity in extract of Chang cells incubated with oligo (32P-dGTP primer elongation, gel autoradiograph); format: cell-based, human; conditions: 3 μM oligo, three hours
Protocol: Chang cells (human liver carcinoma) were grown in three T150 flasks until they reached confluency. 5'-d(TTAGGG)-3' SEQ ID NO: 3 phosphorothioate oligonucleotide was added at 3 μM concentration to each of the flasks and was allowed to incubate for three hours. Cells were harvested by scraping with a rubber policeman. Telomerase enzyme was prepared according to the method of Dignam, J. D.; Lebovitz, R. M.; and Raeder, R. G. (1983). Accurate transcription initiation by RNA Polymerase II in a Soluble Extract From Isolated Mammalian Nuclei. Nucl. Acids Res. 11, 1475-1489. 20 μL samples were taken from -80° C. and 20 μL of a reaction mixture containing 4.0mM dATP, 4.0mM dTTP, 4.0 mM dGTP, 2.0 μM (5'-d(TTAGGG)3 -3') SEQ ID NO: 4 primer, 10 mM β-mercaptanol, 100 mM TRIS-acetate pH 8.5, 2.0 mM MgCl2, 1 mM spermidine, and 2 μL of 3000 Ci/mmol P^32 labeled dGTP.
Samples were incubated for 30 minutes at 30° C. and stopped by the addition 10 μL […] EDTA pH 8.0 and 2.0 μL of tracking dye. Samples were loaded onto a 12.5 percent acrylamide gel and run at 25 mA constant power for 4-5 hours until the tracking dye had run off the gel. The gel was then soaked in 10 percent glycerol and water and dried overnight between two sheets of cellophane. […] The telomerase activity was inhibited for the 6-mer oligo.

[6] = tested on: OMA-BL1 cells, PBE1 cells, HPB-null cell line; test: Cellular uptake of FITC-labeled oligo; format: cell-based; conditions: 6-mer compared with 18-mer; cell lines which have differentiated
Excerpt: Several studies were done on cellular uptake and thus efficiency of oligonucleotide sequences mimicking the telomere motif. FIGS. 4 and 5 depict the comparison of the 18-mer 5'-d(TTAGGG)3 -3' SEQ ID NO: 4 with the 6-mer TELIGO 5'-d(TTAGGG)-3' SEQ ID NO: 3 for cellular uptake of FITC-labeled oligo in OMA-BL1 cells (FIGS. 5 and 4(a)), PBE1 cells FIG. 4(b) and in the nondifferentiated HPB-null cell line FIG. 4(c). […] FIG. 6 depicts the effects of 5'-d(TTAGGG)-3' SEQ ID NO: 3 on growth of OMA-BL1 cells in vitro at 1.25 μM and 2.5 μM.

[7] = tested on: telomerase; test: FAM labeled 6-mer recovered from urine of tumor-bearing nude mouse, size analysis of telomerase products; format: in vivo; conditions: nude mouse bearing OMA-BL1 tumor
Protocol: An FAM labeled 6-mer 5'-d(TTAGGG)-3' SEQ ID NO: 3 was injected into nude mice with Burkitt's lymphoma (OMA-BL1) cells growing in them. The FAM labeled TELIGO was recovered from the urine of a nude mouse bearing a tumor composed of OMA-BL1 cells. The urine was evaluated on an Applied Biosystem, Inc. Gene Scanner which can separate the products of the telomerase enzyme by size along the abscissa and reports the quantity of products by the fluorescence intensity along the ordinate in arbitrary units. An internal standard of rhodamine labeled nucleic acids is run in the same gel in order to establish the measurement of size of the telomerase enzyme products of the TELIGO. The FAM label verifies that the DNA is from the injected TELIGO 6-mer and the size additions of intervals of 6-base lengths is evidence of the telomerase enzyme activity which adds 6 bases per catalytic cycle.
All products were multiples of six which is significant because in that telomerase adds bases to telomeres in multiples of six. Thus it would seem the 6-mer interacts with telomerase to form unique products verifying interaction in vivo.

[8] = tested on: cell line; conditions: cited from earlier work
[9] = tested on: telomerase; test: HPB-null cell lysate, incorporation of labeled nucleic acids onto TELIGO 18-mer; format: cell-based; conditions: HPB-null cells
[10] = tested on: telomerase; test: Telomerase activity in OMA-BL1 cell lysate (densitometry of autoradiograph); format: biochemical, human; conditions: test not specified at b115
Protocol: An OMA-BL1 cell lysate was prepared to retain telomerase activity. The telomerase enzyme adds radioactive nucleic acids to the substrate which are separated on a polyacrylamide gel. The relative radioactivity in the gel was measured by densitomitry of the autoradiograph.

[11] = nude mice, 48 μg/day, 14 days, subcutaneous infusion

| Substance | Doubling Time (Hours of Doubling) ([1]; 1.25 μM oligo) [h] | Doubling Time (Hours of Doubling) ([1]; 2.5 μM oligo) [h] | effect on cell proliferation (in words) [1] | other results |
| --- | --- | --- | --- | --- |
| 5'-d(GTTGAGGGG)-3' (DNA, backbone not given here) | 49.4 ± 4.02 | 60.71 ± 4.25 | – | – |
| 5'-d(TAGGG)-3' (DNA, backbone not given here) | 48.5 ± 3.0 | 41.6 ± 2.0 | no inhibitory effect | – |
| 5'-d(TCCTAGGTCCATGTCGTACGC)-3' (DNA, backbone not given here) [reference compound] | – | 38 | – | – |
| 5'-d(TGAGG)-3' (DNA, backbone not given here) | 30.3 ± 39 | 42.0 ± 6.8 | – | – |
| 5'-d(TGTGAG)-3' [reference compound] | 42.4 ± 1.8 | 40.9 ± 2.3 | – | tumor regression [2, 11]: no such action was observed |
| 5'-d(TTAGG)-3' (DNA, backbone not given here) | 31.2 ± 8.5 | 36.7 ± 3.1 | no inhibitory effect | – |
| 5'-d(TTAGGG)-3' (phosphorothioate backbone) [6-mer oligonucleotide which mimics the telomere motif] | 59.4 ± 7.5 | > 100 | drastically decreasing cell proliferation | toxicity during the treatment [2, 11]: No toxicity was observed; tumor regression [2, 11]: regression of tumors; localization of the oligonucleotide ([2]; tumor bearing nude mice, continuous subcutaneous infusion): localization of the oligonucleotide in tumors; % control invasion [3]: 15%; % inhibition [3]: 75%; proliferation (in words) [3]: inhibition of proliferation; % control invasion [4]: 30%; proliferation (in words) [4]: inhibition of proliferation; % inhibition [4]: 70%; telomerase activity (elongation on autoradiograph) [5]: inhibited; cellular uptake of FITC-labeled oligo [6]: considerably higher cellular uptake; effect on cell proliferation (in words) ([1]; listed as phosphorothioate 6-mer): significant decrease in cell proliferation; substrate for telomerase in vivo (FAM-labeled products in urine, multiples of six) [7]: substrate for telomerase in vivo |
| 5'-d(TTAGGGTTAGGG):' (DNA, backbone not given here) [two telomere repeats] | > 100 | > 100 | – | days in culture before any observable response [8]: ≤ 6 days |
| 5'-d(TTAGGGTTAGGGTTAGGG)-3' (DNA, backbone not given here) | > 100 | > 100 | – | % control invasion [3]: 21%; % inhibition [3]: 79%; proliferation (in words) [3]: inhibition of proliferation; % control invasion [4]: 8%; proliferation (in words) [4]: inhibition of proliferation; % inhibition [4]: 92%; extension on the TELIGO 18-mer (retained radioactivity) [9]: dependent upon the dose |
| 5'-d(TTAGGGTTAGGGTTAGGGTTAGGG)-3' | > 100 | > 100 | – | – |
| 5'AACGGTGAGGGGCAT-3' (chemistry not given here) [c-myc, antisense oligo to the c-myc gene, reference compound] | – | – | significantly decreased cellular proliferation | – |
| 5'TATGCTGTGCCGGGGTCTTCGGGC-3' (chemistry not given here) [c-myb antisense oligonucleotide, reference compound] | – | – | significantly decreased cellular proliferation | – |
| TGTGAGGGG (chemistry not given here) [myc 9-mer, 9-mer derived from the antisense oligo c-myc, contains a motif substantially analogous to the telomere motif] | – | – | effects similar to the 6-met | telomerase activity (in words) [10]: inhibited |
